Data published in patent US10314883B2, “Compositions and methods for regulating blood pressure” (University of Virginia Patent Foundation, priority 2015, dated 2019).
Where two headings read alike, the source gives them in different places.

Assays:
[1] = tested on: thoracodorsal arteries (TDA); assay: Pressure myography of TDAs electroporated with Panx1 WT or YLK>AAA plasmid; format: cell-based, mouse; settings: for EC50: Mus musculus, read-out: EC50 of phenylephrine-induced constriction
Procedure: The contractile responses of pressurized thoracodorsal arteries (TDA) were measured as previously described. Briefly, TDA were isolated and placed in cold Krebs-HEPES until cannulation in a pressure arteriograph (Danish MyoTechnology). After a 30 minute equilibration period, cumulative concentrations of contractile agonists were applied to the TDA pressurized at 80 mmHg, and the vessel was visualized with an Olympus IX-71 microscope attached to a Hamamatsu EM-CCD camera coupled to Slidebook imaging software. […] Lastly, maximal diameter was measured at the end of each experiment in calcium-free Krebs-HEPES supplemented with EGTA (1 mmol/L) and sodium nitroprusside (10 μmol/L). In cases where the vessels were not constricting to the contractile agonist, their viability was assessed by applying 40 mM KCl and only TDA reaching 30% of the maximal diameter were considered for analysis. The contractile responses, as well as the basal tone, are expressed as a percentage of the maximal diameter.
Vessel transfection was performed as previously described by us. Briefly, after isolation, TDA were placed in cold, sterile RPMI supplemented with penicillin […] (Gibco), CaCl2 (2 mmol/L) and 1% BSA. Vessels were transferred to a cuvette containing 100 μL of Nucleofector solution (Lonza) containing 5 μg of plasmid, and subjected to electroporation. Arteries were then placed in supplemented RPMI media in an incubator for 14 to 18 hours until cannulation in the pressure arteriograph as described above.
We further tested the importance of the YLK sequence within the intracellular loop of Panx1 on phenylephrine-induced vasoconstriction using rescue experiments with intact arteries from mice lacking endogenous Panx1. We reintroduced Panx1 into the SMCs of TDAs from Cre^+/Panx1^F1 mice that had received tamoxifen by selectively transfecting these cells with a plasmid encoding Panx1^WT.

resistance arterioles = assay: Diameter of resistance arterioles isolated from adipose tissue of hypertensive subjects; format: cell-based, human; settings: arterioles from treatment resistant hypertension patients
Description: The resistance arterioles were isolated from adipose tissue. Treatment resistant hypertension: >3 continue to have high blood pressure.

[2] = TDAs from Cre^+/Panx1^FL with tamoxifen + Panx1^WT
[3] = TDAs from Cre^+/Panx1^FL with tamoxifen + Panx1^YLK>AAA
[4] = TDAs from Cre^+/Panx1^FL with tamoxifen, electroporated without plasmid
[5] = TDAs from Cre^+/Panx1^FL, no tamoxifen, electroporated without plasmid

Row | Compound | EC50 [1, 2] [µM] | EC50 [1, 3] [µM] | EC50 [1, 4] [µM] | EC50 [1, 5] [µM] | EMAX of phenylephrine-induced constriction [1, 2] | EMAX of phenylephrine-induced constriction [1, 3] | EMAX of phenylephrine-induced constriction [1, 4] | EMAX of phenylephrine-induced constriction [1, 5] | effect on hyperconstriction of resistance arterioles (resistance arterioles)
1 | CNC[C@H](O)c1cccc(O)c1 [Phenylephrine, phenylephrine] | 0.45 ± 0.33 | 0.63 ± 0.53 | 1.13 ± 0.77 | 0.64 ± 0.23 | 34.2 ± 6.15 percentage of maximal diameter | 56.9 ± 5.84 percentage of maximal diameter | 57.5 ± 9.20 percentage of maximal diameter | 32.9 ± 4.85 percentage of maximal diameter | 
2 | KYPIVEQYLKYGRKKQRRR [IL2] |  |  |  |  |  |  |  |  | significantly reduces hyperconstriction
